Patent US20230270804A1, “ANTI-HYPERCHOLESTEROLEMIA COMPOSITION AND A METHOD OF MANUFACTURING THE SAME” (NBI BIOSCIENCES PRIVATE LIMITED, priority 2020, published 2023)
Entries after “also recorded” stand apart in the source; their conditions may differ.

What was measured:
Type in all cases: in vivo, Wistar strain albino rats
[1] = tested on: heart, spleen, lungs, kidney, liver; test: Prophylactic study: histopathology (heart, spleen, lungs, kidney, liver); settings: HFD
From the text: FIG. 1 depicts the histopathological images of heart.
FIG. 2 depicts the histopathological images of Spleen. […] However, this indicates the safety of the composition of the present invention on spleen.
FIG. 3 depicts the histopathological images of Lungs. […] However, this indicates the safety of the composition of the present invention on lungs.
FIG. 4 depicts the histopathological images of kidney. […] However, this indicates the safety of the composition of the present invention on kidney.
FIG. 5 depicts the histopathological images of liver. […] It also indicates the safety of the composition of the present invention on liver. The composition of the present invention was also found useful to prevent the deposition of the fat bodies.

[2] = Prophylactic study: hematological parameters; settings: HFD+normal diet, day 0
[3] = Prophylactic study: organ weights after sacrifice; settings: HFD+normal diet
Description: The prophylactic study which lasted 90 days used 6 rats per group. […] The 6 groups were as follows: • 1. Normal Control • 2. High Fat Diet (HFD) 1 ml 1/d+Normal Diet • 3. High Fat Diet (HFD)+Normal Diet+the composition of the present invention (OD) • 4, High Fat Diet (HFD)+Normal Diet+the composition of the present invention (BD) • 5. […] The body weights were recorded to the nearest gram (g) with proper tare to 0.0000 with the subject at steady state on the weighing machine. The same weighing machine was used for all the subjects. The machine was tested with a known set of weights for any error.

[4] = tested on: hypercholesterolemia induced wistar rats' models; test: Therapeutic study: lipid profile (TC, TG, HDL-C, LDL-C, VLDL)
Description: Wistar strain albino rats of body weight ranging from 190-225 g were selected for the present study. The temperature and humidity were kept at optimum (22+2° C.; 40-70% and animals were exposed to natural chronological day night cycles. The experiments were carried out in conformity with the Institutional Animal Ethics Committee.
The 6 groups were as follows: • 1. Normal Control • 2.
(§1) 1.5-2 ml blood sample was taken from retino-orbital chamber in vials for biochemical estimations at every 15 days. Investigations performed included detailed Total Cholesterol—TC (mg/dl), Triglyceride—TG (mg/dl), High Density Lipoprotein—HDL-C (mg/dl), Low Density Lipoprotein—LDL-C (mg/dl), Very Low-Density Lipoprotein—VLDL (mg/dl), WBC (10^3/u1), RBC (10^6/u1), Hb (g/dl), PCV (%), Reticulocyte (%), Platelet count 10^5/mm^3, Clotting time (Sec), Neutrophils, Lymphocyte, Monocyte and Eosinophil. The estimations were done with Ecoline kits from Erba Mannheim, ERBA diagnostics Mannheml, Germany using Semi Autoanalyzer RX50 of MicroLabs Instruments and COUNCELL21 of Tulip Diagnostics Pvt. Ltd. Lipid peroxidation (Plasma & Liver), HMG Co-Reductase, Creatine phosphokinase (CPK), Lactate dehydrogenase (LDH), SGOT and SGPT were estimated at the end of both the studies using the kits.

[5] = tested on: Creatine phosphokinase (CPK), Lactate dehydrogenase (LDH), SGOT and SGPT; test: Therapeutic study: CPK, LDH, SGOT, SGPT
Description: as §1

In the case of `CC(C)c1c(C(=O)Nc2ccccc2)c(-c2ccccc2)c(-c2ccc(F)cc2)n1CC[C@@H](O)C[C@@H](O)CC(=O)O` [Statin, Atorvastatin], the histopathology of heart [1] is reported as “relaxation in the cardiac muscles as the fat content was decreased”, the “histopathology of liver (fatty liver grade)” value ([1]; composition at OD and BD dose levels) is reported as “dilation of hepatic portal triad was more evident; also recorded: from grade 2 to grade 1” and the Platelet count [2] is reported as 1040 ± 15.2 10³/µL. It also gave a Heart weight [3] of 2.79 ± 0.03 g/100 g bd · wt, an Intestine weight [3] of 3.54 ± 0.03 and a Kidney weight [3] of 1.15 ± 0.03 g/100 g bd · wt. It also gave a Liver weight [3] of 3.90 ± 0.05 g/100 g bd · wt, a Lungs weight [3] of 1.96 ± 0.02 g/100 g bd · wt and a Spleen weight [3] of 0.65 ± 0.03. The pancreas weight [3] was 0.90 ± 0.05 g/100 g bd · wt, the HDL-C ([4]; HFD continued, day 0) was 40.33 ± 2.08 mg/dL and the LDL-C ([4]; HFD continued, day 0) was 91.67 ± 3.06 mg/dL. It also gave a TC ([4]; HFD continued, day 0) of 139.67 ± 4.04 mg/dL, a TG ([4]; HFD continued, day 0) of 38.67 ± 2.08 mg/dL and a VLDL ([4]; HFD continued, day 0) of 3.87 ± 0.31 mg/dL. It also gave an HDL-C ([4]; HFD continued, day 15) of 40.83 ± 1.15 mg/dL, an LDL-C ([4]; HFD continued, day 15) of 92.83 ± 3.82 mg/dL and a TC ([4]; HFD continued, day 15) of 138.00 ± 4.00 mg/dL. The TG ([4]; HFD continued, day 15) was 38.00 ± 1.80 mg/dL, the HDL-C ([4]; HFD continued, day 30) was 42.45 ± 0.44 mg/dL and the LDL-C ([4]; HFD continued, day 30) was 91.33 ± 0.21 mg/dL. It also gave a TC ([4]; HFD continued, day 30) of 134.00 ± 3.00 mg/dL, a TG ([4]; HFD continued, day 30) of 37.30 ± 0.44 mg/dL and a VLDL ([4]; HFD continued, day 30) of 3.91 ± 0.05 mg/dL. The HDL-C ([4]; HFD continued, day 45) was 40.20 ± 2.07 mg/dL, the LDL-C ([4]; HFD continued, day 45) was 90.37 ± 0.85 mg/dL and the TC ([4]; HFD continued, day 45) was 126.33 ± 4.51 mg/dL. It also gave a TG ([4]; HFD continued, day 45) of 34.73 ± 1.37 mg/dL, a VLDL ([4]; HFD continued, day 45) of 3.86 ± 0.11 mg/dL and an HDL-C ([4]; HFD continued, day 60) of 39.82 ± 1.88 mg/dL. It also gave an LDL-C ([4]; HFD continued, day 60) of 89.52 ± 1.20 mg/dL, a TC ([4]; HFD continued, day 60) of 125.15 ± 4.20 mg/dL and a TG ([4]; HFD continued, day 60) of 34.41 ± 1.26 mg/dL. It also gave a VLDL ([4]; HFD continued, day 60) of 3.82 ± 0.10 mg/dL, an HDL-C ([4]; HFD discontinued, day 0) of 41.67 ± 1.53 mg/dL and an LDL-C ([4]; HFD discontinued, day 0) of 90.67 ± 3.21 mg/dL. It also gave a TC ([4]; HFD discontinued, day 0) of 134.33 ± 4.04 mg/dL, a TG ([4]; HFD discontinued, day 0) of 38.33 ± 2.52 mg/dL and a VLDL ([4]; HFD discontinued, day 0) of 3.83 ± 0.38 mg/dL. The HDL-C ([4]; HFD discontinued, day 15) was 40.17 ± 0.58 mg/dL, the LDL-C ([4]; HFD discontinued, day 15) was 90.60 ± 3.55 mg/dL and the TC ([4]; HFD discontinued, day 15) was 133.00 ± 4.58 mg/dL. It also gave a TG ([4]; HFD discontinued, day 15) of 37.50 ± 2.00 mg/dL, a VLDL ([4]; HFD discontinued, day 15) of 3.91 ± 0.34 mg/dL and an HDL-C ([4]; HFD discontinued, day 30) of 41.23 ± 0.38 mg/dL. The LDL-C ([4]; HFD discontinued, day 30) was 85.03 ± 0.21 mg/dL, the TC ([4]; HFD discontinued, day 30) was 129.33 ± 2.08 mg/dL and the TG ([4]; HFD discontinued, day 30) was 35.97 ± 0.74 mg/dL. For the same compound, the VLDL ([4]; HFD discontinued, day 30) was 3.88 ± 0.04 mg/dL, the HDL-C ([4]; HFD discontinued, day 45) was 39.70 ± 0.46 mg/dL and the TC ([4]; HFD discontinued, day 45) was 117.67 ± 6.66 mg/dL. For the same compound, the TG ([4]; HFD discontinued, day 45) was 34.53 ± 0.83 mg/dL, the VLDL ([4]; HFD discontinued, day 45) was 3.69 ± 0.05 mg/dL and the HDL-C ([4]; HFD discontinued, day 60) was 38.94 ± 0.82 mg/dL. It also gave an LDL-C ([4]; HFD discontinued, day 60) of 83.69 ± 1.18 mg/dL, a TC ([4]; HFD discontinued, day 60) of 116.49 ± 6.04 mg/dL and a TG ([4]; HFD discontinued, day 60) of 34.19 ± 0.83 mg/dL. The “level of HDL” value ([4]; therapeutic study, 60 days) was 39 mg/dL, the “reduction in LDL” value ([4]; therapeutic study, 60 days) was 8% and the “reduction in total cholesterol” value ([4]; therapeutic study, 60 days) was 13%. It also gave a Creatine phosphokinase ([5]; HFD Continued) of 1.31 ± 0.08, an LDH ([5]; HFD Continued) of 288.32 ± 12.64 U/ml and an SGOT ([5]; HFD Continued) of 63.76 ± 2.92 U/ml. The SGPT ([5]; HFD Continued) was 53.82 ± 1.13 U/ml, the LDH ([5]; HFD Discontinued) was 284.07 ± 5.61 U/ml and the SGOT ([5]; HFD Discontinued) was 62.88 ± 3.43 U/ml. It also gave an SGPT ([5]; HFD Discontinued) of 64.69 ± 0.52 U/ml, a CPK value increase ([5]; therapeutic study) of 10% and an SGOT reduction ([5]; therapeutic study) of 16%. It also gave an SGPT reduction ([5]; therapeutic study) of 5%.
